Laboratory results published in ChEMBL document CHEMBL4219271, “Synthesis and anti-proliferative activity of allogibberic acid derivatives containing 1,2,3-triazole pharmacophore” (Bioorg Med Chem Lett, 2018).

Key:
HL-60 = assay: Cytotoxicity against human HL60 cells assessed as decrease in cell viability after 4 days by MTT assay; type: functional, cell-based; details: HL-60, 96 h
SMMC-7721 [1] = assay: Cytotoxicity against human SMMC7721 cells assessed as decrease in cell viability after 4 days by MTT assay; type: functional, cell-based; details: SMMC-7721, 96 h
A549 = assay: Cytotoxicity against human A549 cells assessed as decrease in cell viability after 4 days by MTT assay; type: functional, cell-based; details: A549, 96 h
MCF7 = assay: Cytotoxicity against human MCF7 cells assessed as decrease in cell viability after 4 days by MTT assay; type: functional, cell-based; details: MCF7, 96 h
SW480 [2] = assay: Cytotoxicity against human SW480 cells assessed as decrease in cell viability after 4 days by MTT assay; type: functional, cell-based; details: SW480, 96 h
SW480 [3] = assay: Potency index, ratio of cisplatin IC50 to compound IC50 for human SW480 cells; type: functional
SMMC-7721 [4] = assay: Induction of apoptosis in human SMMC7721 cells assessed as viable cells at 0.425 uM after 48 hrs by Annexin V-FITC/PI double staining based flow cytometry (reference value: 100%); type: functional; details: SMMC-7721, 48 h, read-out: Activity
SMMC-7721 [5] = assay: Induction of apoptosis in human SMMC7721 cells assessed as early apoptotic cells at 0.425 uM after 48 hrs by Annexin V-FITC/PI double staining based flow cytometry (reference value: 0.035%); type: functional
SMMC-7721 [6] = assay: Induction of apoptosis in human SMMC7721 cells assessed as late apoptotic cells at 0.425 uM after 48 hrs by Annexin V-FITC/PI double staining based flow cytometry (reference value: 0%); type: functional
SMMC-7721 [7] = assay: Induction of apoptosis in human SMMC7721 cells assessed as necrotic cells at 0.425 uM after 48 hrs by Annexin V-FITC/PI double staining based flow cytometry (reference value: 0%); type: functional
SMMC-7721 [8] = assay: Induction of apoptosis in human SMMC7721 cells assessed as viable cells at 0.85 uM after 48 hrs by Annexin V-FITC/PI double staining based flow cytometry (reference value: 100%); type: functional; details: SMMC-7721, 48 h, read-out: Activity
SMMC-7721 [9] = assay: Induction of apoptosis in human SMMC7721 cells assessed as early apoptotic cells at 0.85 uM after 48 hrs by Annexin V-FITC/PI double staining based flow cytometry (reference value: 0.035%); type: functional
SMMC-7721 [10] = assay: Induction of apoptosis in human SMMC7721 cells assessed as late apoptotic cells at 0.85 uM after 48 hrs by Annexin V-FITC/PI double staining based flow cytometry (reference value: 0%); type: functional
SMMC-7721 [11] = assay: Induction of apoptosis in human SMMC7721 cells assessed as necrotic cells at 0.85 uM after 48 hrs by Annexin V-FITC/PI double staining based flow cytometry (reference value: 0%); type: functional
SMMC-7721 [12] = assay: Induction of apoptosis in human SMMC7721 cells assessed as viable cells at 1.7 uM after 48 hrs by Annexin V-FITC/PI double staining based flow cytometry (reference value: 100%); type: functional; details: SMMC-7721, 48 h, read-out: Activity
SMMC-7721 [13] = assay: Induction of apoptosis in human SMMC7721 cells assessed as early apoptotic cells at 1.7 uM after 48 hrs by Annexin V-FITC/PI double staining based flow cytometry (reference value: 0.035%); type: functional
SMMC-7721 [14] = assay: Induction of apoptosis in human SMMC7721 cells assessed as late apoptotic cells at 1.7 uM after 48 hrs by Annexin V-FITC/PI double staining based flow cytometry (reference value: 0%); type: functional
SMMC-7721 [15] = assay: Induction of apoptosis in human SMMC7721 cells assessed as necrotic cells at 1.7 uM after 48 hrs by Annexin V-FITC/PI double staining based flow cytometry (reference value: 0%); type: functional
SMMC-7721 [16] = assay: Induction of apoptosis in human SMMC7721 cells assessed as viable cells at 3.4 uM after 48 hrs by Annexin V-FITC/PI double staining based flow cytometry (reference value: 100%); type: functional; details: SMMC-7721, 48 h, read-out: Activity
SMMC-7721 [17] = assay: Induction of apoptosis in human SMMC7721 cells assessed as early apoptotic cells at 3.4 uM after 48 hrs by Annexin V-FITC/PI double staining based flow cytometry (reference value: 0.035%); type: functional
SMMC-7721 [18] = assay: Induction of apoptosis in human SMMC7721 cells assessed as late apoptotic cells at 3.4 uM after 48 hrs by Annexin V-FITC/PI double staining based flow cytometry (reference value: 0%); type: functional
SMMC-7721 [19] = assay: Induction of apoptosis in human SMMC7721 cells assessed as necrotic cells at 3.4 uM after 48 hrs by Annexin V-FITC/PI double staining based flow cytometry (reference value: 0%); type: functional
SMMC-7721 [20] = assay: Cell cycle arrest in human SMMC7721 cells assessed as accumulation at S phase after 24 hrs by propidium iodide staining based flow cytometry; type: functional
SMMC-7721 [21] = assay: Cell cycle arrest in human SMMC7721 cells assessed as accumulation at G0/G1 phase at 0.425 uM after 24 hrs by propidium iodide staining based flow cytometry (reference value: 77.85 +/- 1.90%); type: functional
SMMC-7721 [22] = assay: Cell cycle arrest in human SMMC7721 cells assessed as accumulation at G0/G1 phase at 0.85 uM after 24 hrs by propidium iodide staining based flow cytometry (reference value: 77.85 +/- 1.90%); type: functional
SMMC-7721 [23] = assay: Cell cycle arrest in human SMMC7721 cells assessed as accumulation at G0/G1 phase at 1.7 uM after 24 hrs by propidium iodide staining based flow cytometry (reference value: 77.85 +/- 1.90%); type: functional
SMMC-7721 [24] = assay: Cell cycle arrest in human SMMC7721 cells assessed as accumulation at G0/G1 phase at 3.4 uM after 24 hrs by propidium iodide staining based flow cytometry (reference value: 77.85 +/- 1.90%); type: functional
SMMC-7721 [25] = assay: Cell cycle arrest in human SMMC7721 cells assessed as accumulation at S phase at 0.425 uM after 24 hrs by propidium iodide staining based flow cytometry (reference value: 13.71 +/- 0.62%); type: functional
SMMC-7721 [26] = assay: Cell cycle arrest in human SMMC7721 cells assessed as accumulation at S phase at 0.85 uM after 24 hrs by propidium iodide staining based flow cytometry (reference value: 13.71 +/- 0.62%); type: functional
SMMC-7721 [27] = assay: Cell cycle arrest in human SMMC7721 cells assessed as accumulation at S phase at 1.7 uM after 24 hrs by propidium iodide staining based flow cytometry (reference value: 13.71 +/- 0.62%); type: functional
SMMC-7721 [28] = assay: Cell cycle arrest in human SMMC7721 cells assessed as accumulation at S phase at 3.4 uM after 24 hrs by propidium iodide staining based flow cytometry (reference value: 13.71 +/- 0.62%); type: functional
SMMC-7721 [29] = assay: Cell cycle arrest in human SMMC7721 cells assessed as accumulation at G2/M phase at 0.425 uM after 24 hrs by propidium iodide staining based flow cytometry (reference value: 5.72 +/- 0.59%); type: functional
SMMC-7721 [30] = assay: Cell cycle arrest in human SMMC7721 cells assessed as accumulation at G2/M phase at 0.85 uM after 24 hrs by propidium iodide staining based flow cytometry (reference value: 5.72 +/- 0.59%); type: functional
SMMC-7721 [31] = assay: Cell cycle arrest in human SMMC7721 cells assessed as accumulation at G2/M phase at 1.7 uM after 24 hrs by propidium iodide staining based flow cytometry (reference value: 5.72 +/- 0.59%); type: functional
SMMC-7721 [32] = assay: Cell cycle arrest in human SMMC7721 cells assessed as accumulation at G2/M phase at 3.4 uM after 24 hrs by propidium iodide staining based flow cytometry (reference value: 5.72 +/- 0.59%); type: functional

C=C1C(=O)[C@]23C[C@@]1(O)CC[C@H]2c1ccc(O)c(C)c1[C@@H]3Cn1cc(-c2ccc(F)cc2)nn1
IC50 (HL-60): 0.66 µM
IC50 (SMMC-7721 [1]): 0.85 µM
IC50 (A549): 0.94 µM
IC50 (MCF7): 1.7 µM
IC50 (SW480 [2]): 0.25 µM
Ratio IC50 (SW480 [3]): 33
viability at 0.425 µM (SMMC-7721 [4]): 80.9%
Activity (SMMC-7721 [5]): 3.31%
Activity (SMMC-7721 [6]): 12.7%
Activity (SMMC-7721 [7]): 3.14%
viability at 0.85 µM (SMMC-7721 [8]): 79.8%
Activity (SMMC-7721 [9]): 7.83%
Activity (SMMC-7721 [10]): 10.7%
Activity (SMMC-7721 [11]): 1.72%
viability at 1.7 µM (SMMC-7721 [12]): 43.4%
Activity (SMMC-7721 [13]): 31.9%
Activity (SMMC-7721 [14]): 22.7%
Activity (SMMC-7721 [15]): 1.97%
viability at 3.4 µM (SMMC-7721 [16]): 2.17%
Activity (SMMC-7721 [17]): 90.4%
Activity (SMMC-7721 [18]): 7.41%
Activity (SMMC-7721 [19]): 0.053%
Activity (SMMC-7721 [20]): Dose-dependent effect
Activity (SMMC-7721 [21]): 78.27%
Activity (SMMC-7721 [22]): 74.23%
Activity (SMMC-7721 [23]): 70.87%
Activity (SMMC-7721 [24]): 71.54%
Activity (SMMC-7721 [25]): 13.92%
Activity (SMMC-7721 [26]): 17.38%
Activity (SMMC-7721 [27]): 19.35%
Activity (SMMC-7721 [28]): 22.73%
Activity (SMMC-7721 [29]): 6.24%
Activity (SMMC-7721 [30]): 7.7%
Activity (SMMC-7721 [31]): 6.05%
Activity (SMMC-7721 [32]): 0.89%
